Data set [1] can be described thus: Appearance of aqueous gel preparations (Examples 10 and 11). The data set is classed as physicochemical. The conditions noted are these: Example 11: TECA and VC-P solutions mixed with Blanose 7HF gel with Nipaguard DMDMH. The procedure:
A stock solution of surfactant, co-surfactant, lipid and active agent was initially prepared in water at double the desired final concentration. Briefly, co-surfactant, lipid and active agent were dissolved in ethanol, while heating (approximately 30° C.) and stirring. Surfactant material was then added whilst maintaining heat and stir conditions. Ethanol was subsequently removed via rotary evaporation and the resulting dry material was then resolubilized in water with warming (ca. 50° C.) at double the desired final concentration.
Nipaguard PDU was dissolved into water while heating (approximately 30° C.) and stirring. Blanose® 7HF was then added until a uniform gel was formed.
Solution A and Solution B were then mixed in equal volumes to produce the final preparation.
A stock solution of surfactant, co-surfactant, lipid and active agent was initially prepared. Briefly, co-surfactant, lipid and active agent were dissolved in ethanol, while heating (approximately 30° C.) and stirring. Surfactant material was then added whilst maintaining heat and stir conditions. Ethanol was subsequently removed via rotary evaporation and the resulting dry material was then resolubilized in water with warming (ca. 50° C.) at four times the desired final concentration.
A stock solution of surfactant, co-surfactant, lipid and active agent was initially prepared. […]

Data set [2] can be described thus: Reconstitution of dried (freeze-dried or rotary evaporated) formulations in water. Format: physicochemical. The conditions noted are these: rotary evaporated Brij 35P/90H/SL 80-3/progesterone composition. The source says: Of those samples which were dried, all were easily reconstituted into water at the same concentration as prior to drying.
Reconstitution of the freeze-dried composition containing Brij 35P (2.5%), 90H (1%), SL 80-3 (0.05%) and TECA (0.8%), indicated in the table above by #, was successful at a concentration of 32.4% by dry weight (i.e. an overall concentration of 6% active in the final aqueous solution).
The rotary evaporated composition containing Brij 35P (2.5%), 90H (1%), SL 80-3 (0.05%) and progesterone (0.1%), indicated in the table above by t, was reconstituted in water to provide a clear and colourless solution with a progesterone concentration of 0.25% (i.e. 2500 ug/ml, 2.7% progesterone by dry weight).

For data set [3] the following is noted: cited from earlier work.
The conditions of data set [4]: Surf. Brij 35P 2.5%, lipid 90H 1.0%, co-surf. S LPC ca. 0.01% (as SL 80-3 0.05%), active agent 0.10%.
Procedure: A stock emulsion of co-surfactant, lipid and active agent was prepared at double the desired final concentration. Co-surfactant was dissolved in water while heating (approximately 60° C.) and stirring, with the conditions maintained for approximately 15 further minutes before the mixture was homogenised (approximately 1 minute at 13,000 RPM, POLYTRON PT 3100 Homogeniser). Lipid was then added gradually, followed by continued stirring and heating until a uniform emulsion is formed. After approximately 45 minutes the mixture was then homogenised (approximately 3 minute at 15,000 RPM). The temperature was then brought to around 50° C. before the active component was added slowly under stirring until a uniform emulsion was present. The final emulsion was then homogenised (approximately 1 minute, ULTRA-TURRAX®-Janke & Kunkel).
A stock solution of surfactant was prepared at double (i.e. 5%) the desired final concentration of 2.5%, by mixing of the surfactant with the appropriate volume of water.
Macromolecular complexes incorporating active agents were then prepared by the dropwise addition of the warm lipid containing emulsion to an equal volume of surfactant solution while stirring and heating 50° C.
Samples were then allowed to cool to room temperature before being analyzed.
For a quantitative analysis of the clarity of aqueous solutions of surfactant, lipid and active, samples were examined using a turbidity meter (Nephla, from Hach-Lange). The turbidity meter was calibrated prior to use, with two known standards (0 and 40 FNU).
For data set [5] the following is noted: cited from earlier work. This is another data set of the same source.
Data set [6] can be described thus: Solubilisation of piroctone olamine in compositions of the invention (Example 7). The data set is classed as physicochemical. The note with it: dried material (15 g Brij 35P, 6 g 90H, 0.3 g SL 80-3, 4.8 g active) re-solubilized into 50 g of water. The procedure: Macromolecular assemblies of the present invention which incorporated piroctone olamine were prepared in isopropanol using a method analogous to that described in Example 6 (in that case using ethanol solvent), before being dried by rotary evaporation. The dried material having the composition: • Surfactant—15 g Brij 35P • Lipid—6 g 90H • Co-surfactant (indirectly)—0.3 g SL 80-3 • Active agent—4.8 g piroctone olamine • i.e. total piroctone olamine by weight=18.4%
The dried material was then re-solubilized into 50 g of water to provide a concentrated solution (i.e. using the present invention enables aqueous formulations containing at least 9.6% piroctone olamine by weight to be prepared).

Data set [7] is described as follows: Turbidity of surfactant/lipid compositions, formation of macromolecular complexes (Example 1). The data set is classed as physicochemical. The conditions noted are these: 2.5% surfactant, 1% 90H lipid, ca. 0.01% S LPC co-surfactant (as 0.05% SL 80-3) in water, room temperature. The procedure:
Briefly, to the appropriate volume of warm water (ca. 60° C.), SL 80-3 was added. […] 90H was then added gradually, with heating and stirring maintained throughout and for a further 45 minutes after completion.
After mixing the solution was stirred and heated to around 60-70° C.
The required quantity of warm lipid emulsion was slowly added to the warm surfactant solution while stirring with the temperature maintained.

The nature of data set [8]: Visual clarity of surfactant/lipid mixtures in water (Comparative Example 1). The data set is classed as physicochemical. The procedure: The appropriate quantity of lipid and surfactant was added to water, which was then warmed to approximately 50° C. and stirred until a uniform emulsion was formed. The mixture was then homogenised for 10 minutes. Percentage values specified in this experiment refer to the weight of the component in question as a proportion of the total weight of the composition. Once the mixtures were prepared they were visually examined to determine whether the surfactant component had solubilized the lipid component in the aqueous medium. The clarity of a mixture was categorized as being clear if there was no significant visible opacity to the naked eye, whereas a mixture was categorized as cloudy if there was significant visible disruption to the passage of light.

For data set [9] the following is noted: rough average of manufacturer and literature values; cited from earlier work.
Data set [10] can be described thus: Clarity and turbidity of surfactant/active agent mixtures in water (Comparative Example 2). The note with it: surfactant 5% w/w + TECA 0.5% w/w in water, visual. Format: physicochemical.
Procedure: The appropriate quantity of surfactant and active agent was added to water, which was then warmed to approximately 50° C. and stirred. The mixture was then homogenised for 10 minutes. Percentage values specified in this experiment refer to the weight of the component in question as a proportion of the total weight of the composition. Once the mixtures were prepared they were visually examined to determine whether the surfactant component had solubilized the active agent in the aqueous medium. The clarity of a mixture was categorized as being clear if there was no significant visible opacity to the naked eye, whereas a mixture was categorized as cloudy if there was significant visible disruption to the passage of light. For a quantitative analysis of the clarity of aqueous solutions of surfactant and active, certain samples were examined using a turbidity meter ([…] , from Hach-Lange). The turbidity meter was calibrated prior to use, with two known standards (0 and 40 FNU).

Read-outs that look alike come from different tables or passages of the source. Marks after values point to notes of the source that are not given here.

On to vitamin C dipalmitate [VC-P], for which the “Appearance of cosmetic gel preparation” value in data set [1] is “clear and colourless aqueous gel”.

Turning to `CC(=O)[C@H]1CC[C@H]2[C@@H]3CCC4=CC(=O)CC[C@]4(C)[C@H]3CC[C@]12C` [progesterone], the “Active agent by dry weight” value in data set [2] worked out at 2.7%. The “Active loading by dry weight” value in [3] (WO00/50007, 1.76 mg/ml using 198 mg of carrier) is “approximately 1.0%”. Further, the “Maximum concentration in aqueous dispersion” value was 1.76 mg/mL in data set [3] (WO00/50007, using 198 mg of carrier) and 1.76 mg/mL in [3] (delivery system of WO00/50007 (Example 47), higher carrier concentration). For the same compound, the “Turbidity (FNU)” value in data set [4] is reported as 34.20† FNU.

With `Cc1cc(CC(C)CC(C)(C)C)n(O)c(=O)c1.NCCO` (stereo not shown) [piroctone olamine], the “Aqueous solubility with surfactant” value in data set [5] (15% SDS, pH 7, room temperature) is reported as “approximately 2.8%”. Besides, the Solubility in data set [5] (in 1,2-Propyleneglycol) was 16.0%; in data set [5] (in Ethanol) it was 10.0%; in [5] (in Glycerol), 1.7%; in [5] (in Isopropanol) it was 5.0%; in [5] (in PEG-400) it was 1.9%; in [5] (in Water) it was 0.05%. Besides, the “Active agent content of concentrated aqueous formulation” value in [6] is on record as “at least 9.6 % by weight”.

On to `CCCCCCCCCCCCOS(=O)(=O)[O-].[Na+]` [SDS, Sodium dodecyl sulphate], for which the “Average Turbidity” value in data set [7] stood at 26.2 FNU. Moreover, the Clarity entry in [8] (surfactant 2.5% w/w + lipid 90H 1.0% w/w in water) is listed as “Cloudy”; in data set [8] (surfactant 5.0% w/w + lipid 90H 1.0% w/w in water), “Clear”; in data set [10], “Cloudy”. The “Average HLB” value in data set [9] was 40.

The values are drawn from patent US20100062067A1, “COMPOSITIONS COMPRISING MACROMOLECULAR ASSEMBLIES OF LIPID AND SURFACTANT” (MALVERN COSMECEUTICS LIMITED, priority 2006, published 2010).
